The values that follow come from ChEMBL document CHEMBL1157477, “Cembrane diterpenoids from the taiwanese soft coral Sarcophyton stolidotum” (2008).

≈ marks a conversion by molar mass, not a printed value. Calls of active or inactive are those of the source. The rule behind the calls is not given here.

Common to all, as to assay type: functional
One experiment has as its system HeLa. Description: Cytotoxicity against human HeLa cells at 10 ug/ml by MTT assay. In general terms: Formazan colour is commonly taken as a measure of viable cells.
Another experiment deals with WiDr. Description: Cytotoxicity against human WiDr cells at 10 ug/ml by MTT assay.
The next experiment relates to Daoy. Description: Cytotoxicity against human Daoy cells.

With `C/C1=C/C(=O)CC2=C[C@@H](OC2=O)[C@H](C(C)C)CC(=O)/C(C)=C/CC1` [SARCOSTOLIDE D], the inhibition (commonly the relative decrease from the control value, in per cent) at 10 µg/mL in the experiment with HeLa amounted to 11.1%; in the experiment with WiDr, 29.1%. For the same compound, the outcome with Daoy was inactive.
For `C/C1=C/C/C=C(\C)C(=O)C[C@H](C(C)C)[C@H]2C=C(CC(=O)C1)C(=O)O2` [SARCOSTOLIDE F], in that order: 7.32%, 29.8% and “inactive”.
On to `C/C1=C\C(=O)CC2=C[C@@H](OC2=O)[C@@H](C(C)C)CC(=O)/C(C)=C/CC1` [SARCOSTOLIDE C], for which the inhibition at 10 µg/mL in the experiment with HeLa turned out to be 1.65%; with WiDr, 19.4%. Also, in the experiment with Daoy, the result was inactive.
Take `C/C1=C/C(=O)CC2=C[C@@H](OC2=O)[C@@H](C(C)C)CC(=O)/C(C)=C/CC1` [SARCOSTOLIDE B]: the figures for the inhibition at 10 µg/mL in the experiment with HeLa and in the experiment on WiDr were 5.88% and 8.31%, respectively. Besides, in the experiment on Daoy, the outcome was inactive.
For `C/C1=C\CC[C@@H](C)CC(=O)CC2=C[C@@H](OC2=O)[C@@H](C(C)C)CC1=O` [SARCOSTOLIDE G], in that order: 18.4%, 20.1% and “inactive”.
Take `C/C1=C/C=C/[C@H](C)C(=O)C[C@H](C(C)C)[C@H]2C=C(CC(=O)C1)C(=O)O2` [SARCOSTOLIDE E]: the inhibition at 10 µg/mL came to 16.8% in the experiment on HeLa and 27.5% in the experiment on WiDr. Moreover, the EC50 in the experiment with Daoy (read-out: ED50 (the source's name)) came to 5.5 µg/mL (≈ 16.6 µM).
Take `C/C1=C/CC/C(C)=C/C(=O)CC2=C[C@@H](OC2=O)[C@@H](C(C)C)CC1=O` [SARCOSTOLIDE A]: the inhibition at 10 µg/mL is 22.3% with HeLa and 20% in the experiment with WiDr. In addition, in the experiment with Daoy, the outcome was inactive.
